For 51 compounds, Ki and inhibition results are on record in patent US5773424A, “Treatment of toxoplasmosis” (priority 1994, dated 1998).

The structures appear in SMILES notation.

The target in the first assay is T. gondii adenosine kinase (Toxoplasma gondii, UniProt Q9TVW2). Briefly: biochemical.
T. gondii adenosine kinase, sequence (Q9TVW2 whole entry): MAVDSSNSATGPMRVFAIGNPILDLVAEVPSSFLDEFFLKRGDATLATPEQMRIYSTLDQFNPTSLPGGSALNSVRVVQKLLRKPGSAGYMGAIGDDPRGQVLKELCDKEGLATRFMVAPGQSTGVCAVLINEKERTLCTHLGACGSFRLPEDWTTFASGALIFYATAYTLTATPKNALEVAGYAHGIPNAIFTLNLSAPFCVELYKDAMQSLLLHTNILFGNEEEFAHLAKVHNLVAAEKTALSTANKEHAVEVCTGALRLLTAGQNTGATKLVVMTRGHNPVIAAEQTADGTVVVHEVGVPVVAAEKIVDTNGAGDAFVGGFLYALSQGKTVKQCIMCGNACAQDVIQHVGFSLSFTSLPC
Details: not given
As to the method: Preparation of cytosol extracts. For the structure activity relationships studies, approximately 5×10^8 T. gondii were suspended in 1.2 ml of 50 mM N-2-hydroxyethylpiperazine-N'-2-ethanesulfonic acid (HEPES)-Cl (pH 8.0)/1 mM dithiothreitol and homogenized for 30 seconds at setting 10, using a Brinnmann Instruments Polytron homogenizer fitted with a PTA 7K1 probe. The homogenate was then centrifuged at approximately 116,000 g for 1 hour at 5° and the supernatant (cytosol extract) collected and used as the enzyme source. Fresh cytosol extracts were prepared for each experiment.
Adenosine kinase assay. T. gondii adenosine kinase activity was measured by following the formation of [^14 C]AMP from [^14 C]adenosine and ATP. […] Therefore, the standard reaction mixture contained 50 mM HEPES-Cl (pH 8.0), 1 mM dithiothreitol, 5 μM [8-^14 C]adenosine (45 Ci/mol), 0.5 mM ATP, 0.5 mM MgCl2, 25 μM (+)-EHNA or 100 μM (±)-EHNA,10-30 μl of cytosol extract (approximately 3-10 μg of protein), and either 0, 0.1, 0.25, 0.5 or 1.0 mM of the compound to be tested, in a final volume of 150 μl.
Reactions were started by the addition of [8-^14 C]adenosine, incubated at 37° for 10 minutes and terminated by placing the reaction tubes in a boiling water bath for 2 minutes. Precipitated proteins were removed by centrifugation in a microcentrifuge (approximately 13,000 g) for 5 minutes, and a 15 μl aliquot of the resulting supernatant was mixed with 5 μl of a solution containing 10 mM each of AMP and adenosine. This mixture was then spotted on silica gel thin layer chromatography plates which were developed with a mixture of chloroform/methanol/acetic acid (16:3:1). […] The substrate and product spots (which accounted for all of the radioactivity on the plates) were identified by UV quenching, cut out, and the radioactivity quantitated by liquid scintillation counting in 20 ml of Scintilene, using a Packard 460 scintillation counter. […] Enzyme velocity was calculated by multiplying the fraction of AMP formed from adenosine times the amount of adenosine in the assay, and dividing by the incubation time.
Determination and significance of AppKi values. AppKi values were used to determine the relative degree of binding of compounds to adenosine kinase as compared to adenosine. AppKi values were estimated from Dixon plots of the data (1/.nu. versus [I]), using a computer program with least squares fitting according to the general principles of Cleland (Cleland, W W, The statistical analysis of enzyme kinetic data. Adv. Enzymol. 29:1-32, 1967). The program was written by Dr. Sungman Cha (Brown University, Providence, R.I.) and modified to fit IBM BASIC by Dr. Fardos N. M. Naguib. […] It should be noted, however, that the type of inhibition (i.e., competitive, noncompetitive, or uncompetitive) produced by the compounds was not determined, nor were the compounds evaluated as substrates for T. gondii adenosine kinase.
`Nc1ncnc2c1ncn2[C@@H]1O[C@H](CO)[C@@H](O)[C@H]1O` [Compound 1]: the Ki was 7 ± 3.3 µM. On the same count and under the same terms, as for `Nc1ncnc2c1ncn2[C@H]1O[C@H](CO)[C@@H](O)[C@H]1O` [Compound 3], the figure is 8400 µM; as for `Nc1c2ncn([C@@H]3O[C@H](CO)[C@@H](O)[C@H]3O)c2nc[n+]1[O-]` [Compound 4], 1230 µM. In the case of `Cn1cnc2c(ncn2[C@@H]2O[C@H](CO)[C@@H](O)[C@H]2O)c1=N` [Compound 6], the Ki was 88 ± 28 µM. `Nc1nc(Cl)nc2c1ncn2[C@@H]1O[C@H](CO)[C@@H](O)[C@H]1O` [Compound 7] came in with a Ki of 870 ± 50 µM. In turn, `OC[C@H]1O[C@@H](n2cnc3c(Br)ncnc32)[C@H](O)[C@@H]1O` [Compound 12] showed a Ki of 28 ± 2 µM. On the same count and under the same terms, to `OC[C@H]1O[C@@H](n2cnc3c(Cl)ncnc32)[C@H](O)[C@@H]1O` [Compound 13, 6-Chloropurine riboside] belongs 9.5 µM; to `OC[C@H]1O[C@@H](n2cnc3c(I)ncnc32)[C@H](O)[C@@H]1O` [Compound 14], 18 ± 1 µM.

Regarding `COc1ncnc2c1ncn2[C@@H]1O[C@H](CO)[C@@H](O)[C@H]1O` [Compound 16], the Ki is 370 ± 40 µM. For `OC[C@H]1O[C@@H](n2cnc3c(S)ncnc32)[C@H](O)[C@@H]1O` [Compound 17], the Ki came out at 5300 µM. The same measure, in the same setting: to `CCSc1ncnc2c1ncn2[C@@H]1O[C@H](CO)[C@@H](O)[C@H]1O` [Compound 19] belongs 330 ± 3 µM; to `CCNc1ncnc2c1ncn2[C@@H]1O[C@H](CO)[C@@H](O)[C@H]1O` [Compound 28], 100 ± 3 µM; to `C=CCNc1ncnc2c1ncn2[C@@H]1O[C@H](CO)[C@@H](O)[C@H]1O` [Compound 30], 220 ± 20 µM.

`CCCCNc1ncnc2c1ncn2[C@@H]1O[C@H](CO)[C@@H](O)[C@H]1O` [Compound 32] gave a Ki of 220 ± 90 µM. The same measure, in the same setting: as for `C/C(=C\CNc1ncnc2c1ncn2[C@@H]1O[C@H](CO)[C@@H](O)[C@H]1O)CO` [Compound 34], the figure is 280 ± 20 µM; as for `OC[C@H]1O[C@@H](n2cnc3c(NCc4ccco4)ncnc32)[C@H](O)[C@@H]1O` [Compound 38], 180 ± 10 µM; as for `CCCCCCNc1ncnc2c1ncn2[C@@H]1O[C@H](CO)[C@@H](O)[C@H]1O` [Compound 39], 76 ± 4 µM. `OC[C@H]1O[C@@H](n2cnc3c(NC4CCCCC4)ncnc32)[C@H](O)[C@@H]1O` [Compound 40] showed a Ki of 240 ± 70 µM.

Take `CC(C)=CCCC(C)=CCNc1ncnc2c1ncn2[C@@H]1O[C@H](CO)[C@@H](O)[C@H]1O` [Compound 41]: the Ki stood at 100 ± 5 µM. The compound `CCCCCCCCCCNc1ncnc2c1ncn2[C@@H]1O[C@H](CO)[C@@H](O)[C@H]1O` [Compound 42] displayed a Ki of 380 ± 130 µM. Still for that read-out and setting: to `OC[C@H]1O[C@@H](n2cnc3c(Nc4ccccc4)ncnc32)[C@H](O)[C@@H]1O` [Compound 43] belongs 88 ± 12 µM; to `O=C(Nc1ncnc2c1ncn2[C@@H]1O[C@H](CO)[C@@H](O)[C@H]1O)c1ccccc1` [Compound 44], 23 ± 1 µM.

With `OC[C@H]1O[C@@H](n2cnc3c(NCc4ccccc4)ncnc32)[C@H](O)[C@@H]1O` [Compound 45], the Ki was determined as 100 ± 30 µM.

Compound `Nc1ccc(CNc2ncnc3c2ncn3[C@@H]2O[C@H](CO)[C@@H](O)[C@H]2O)cc1` [Compound 46] yielded a Ki of 120 ± 10 µM. On the same count and under the same terms, to `COc1ccc(C(=O)Nc2ncnc3c2ncn3[C@@H]2O[C@H](CO)[C@@H](O)[C@H]2O)cc1` [Compound 47] belongs 3.9 ± 0.9 µM; to `C[C@H](Cc1ccccc1)Nc1ncnc2c1ncn2[C@@H]1O[C@H](CO)[C@@H](O)[C@H]1O` [Compound 49], 750 ± 30 µM. On the same count and under the same terms, to `NC(=NO)c1cn([C@@H]2O[C@H](CO)[C@@H](O)[C@H]2O)c2ncnc(N)c12` [Compound 56] belongs 200 ± 6 µM; to `Nc1ncnc2c1nnn2[C@@H]1O[C@H](CO)[C@@H](O)[C@H]1O` [Compound 57], 23 ± 6 µM. The same measure, in the same setting: to `Nc1ncnc2c1nc(Br)n2[C@@H]1O[C@H](CO)[C@@H](O)[C@H]1O` [Compound 59] belongs 660 ± 70 µM.

For `Nc1ncnc2c([C@@H]3O[C@H](CO)[C@@H](O)[C@H]3O)c[nH]c12` [Compound 60], the Ki amounted to 3400 µM. Still for that read-out and setting: to `Nc1nc(Cl)c2ncn([C@@H]3O[C@H](CO)[C@@H](O)[C@H]3O)c2n1` [Compound 63] belongs 1800 µM.

Staying with this assay, now noted: AppKi for inhibition of T. gondii adenosine kinase, 5 μM adenosine; ± range, at least two estimations.
`Nc1nc(F)nc2c1ncn2[C@@H]1O[C@H](CO)[C@@H](O)[C@H]1O` [Compound 8]: the Ki is 3000 µM. On to `OC[C@H]1O[C@@H](n2cnc3cncnc32)[C@H](O)[C@@H]1O` [Compound 11], for which the Ki is 170 ± 20 µM. For the compound `O=[N+]([O-])c1ccc(CSc2ncnc3c2ncn3[C@@H]2O[C@H](CO)[C@@H](O)[C@H]2O)cc1` [Compound 21], the Ki was 140 ± 10 µM. Still for that read-out and setting: to `OC[C@H]1O[C@@H](n2cnc3c(=[Se])[nH]cnc32)[C@H](O)[C@@H]1O` [Compound 23] belongs 130 ± 20 µM; to `O=[N+]([O-])c1ccc(C[Se]c2ncnc3c2ncn3[C@@H]2O[C@H](CO)[C@@H](O)[C@H]2O)cc1` [Compound 24], 84 ± 46 µM; to `CNc1ncnc2c1ncn2[C@@H]1O[C@H](CO)[C@@H](O)[C@H]1O` [Compound 26], 23 ± 1 µM. Same read-out and setting: as for `CC(C)=CCNc1ncnc2c1ncn2[C@@H]1O[C@H](CO)[C@@H](O)[C@H]1O` [Compound 36], the figure is 51 ± 4 µM; as for `Nc1ncnc2c1ccn2[C@@H]1O[C@H](CO)[C@@H](O)[C@H]1O` [Compound 51], 340 ± 80 µM; as for `Nc1ncnc2c1c(Cl)cn2[C@@H]1O[C@H](CO)[C@@H](O)[C@H]1O` [Compound 52], 10 ± 1 µM. Turning to `N#Cc1cn([C@@H]2O[C@H](CO)[C@@H](O)[C@H]2O)c2ncnc(N)c12` [Compound 54, 7-Cyano-7-deazaadenosine (Toyocamycin)], the Ki is less than 60 µM. As for `N#Cc1cn([C@@H]2O[C@H](CO)[C@@H](O)[C@H]2O)c2ncnc(N)c12` [Compound 54], the Ki is 21 ± 2 µM.

Consider `NC(=O)c1cn([C@@H]2O[C@H](CO)[C@@H](O)[C@H]2O)c2ncnc(N)c12` [Compound 55, 7-Carboxamido-7-deazaadenosine (Sangivamycin)], for which the Ki was less than 60 µM.

The same assay, now with this note: read-out: AppKi for inhibition of T. gondii adenosine kinase; 5 μM adenosine; ± range, at least two estimations.
For the compound `Nc1ncnc2c1ncn2[C@@H]1C[C@H](CO)[C@@H](O)[C@H]1O` (relative stereo) [Compound 112, Carbocyclic adenosine], the Ki is 170 ± 30 µM.

The same assay, now with this note: read-out: Inhibition of T. gondii adenosine kinase.
One may read the inhibition as the percentage by which the read-out fell short of the control. With `CCCCCCC(C(C)O)n1cnc2c(N)ncnc21` (racemic) [Compound 113, (±)-EHNA], the inhibition at 1000 µM is less than 10%. Still for that read-out and setting: as for `Nc1ncnc2c1ncn2[C@H]1O[C@@H](CO)[C@H](O)[C@@H]1O` [Compound 2], the figure is less than 10%. Same read-out and setting: to `Nc1ccnc2c1ncn2[C@@H]1O[C@H](CO)[C@@H](O)[C@H]1O` [Compound 5] belongs less than 10%; to `Nc1nc(Nc2ccccc2)nc2c1ncn2[C@@H]1O[C@H](CO)[C@@H](O)[C@H]1O` [Compound 9], less than 10%. Same read-out and setting: to `Nc1nccc2c1ncn2[C@@H]1O[C@H](CO)[C@@H](O)[C@H]1O` [Compound 10] belongs less than 10%; to `O=c1[nH]cnc2c1ncn2[C@@H]1O[C@H](CO)[C@@H](O)[C@H]1O` [Compound 15], less than 10%. As for `OC[C@H]1O[C@@H](n2cnc3cccnc32)[C@H](O)[C@@H]1O` [Compound 61], the inhibition at 1000 µM is less than 10%.
